The target of this test is Recombinant human JAK3 enzyme (JAK3 kinase region; Ala795-Ser1124) (Homo sapiens, UniProt P52333). Briefly: JAK3 Kinase Assay (Kinase-Glo luminescent, ATP consumption). The following applies: read-out: Inhibition rate (%) of JAK3 kinase activity. In general terms: Kinase-Glo reads ATP consumption through a luciferase reaction.

Each structure is given as a SMILES string. Where a name gives a salt, the structure may show the parent alone.

Sequence of Recombinant human JAK3 enzyme (JAK3 kinase region; Ala795-Ser1124) (P52333 795-1124): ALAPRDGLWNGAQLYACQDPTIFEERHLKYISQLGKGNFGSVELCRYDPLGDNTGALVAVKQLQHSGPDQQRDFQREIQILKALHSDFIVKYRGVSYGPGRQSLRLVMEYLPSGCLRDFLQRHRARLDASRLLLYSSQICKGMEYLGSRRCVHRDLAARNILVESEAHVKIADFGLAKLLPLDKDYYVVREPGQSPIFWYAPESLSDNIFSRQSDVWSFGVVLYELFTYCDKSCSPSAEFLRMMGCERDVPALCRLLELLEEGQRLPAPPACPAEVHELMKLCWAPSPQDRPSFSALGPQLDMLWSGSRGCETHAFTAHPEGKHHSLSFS
Experimental: Recombinant human JAK3 enzyme (JAK3 kinase region; Ala795-Ser1124) was purchased from Carna Biosciences, Inc.
The reaction was conducted in a kinase buffer (reaction volume: a total of 50 μl) containing 8 mM MOPS (pH 7.0), 0.2 mM EDTA, a test compound solution prepared to each concentration and 0.5 μg/ml JAK3 enzyme using a 96-well polystyrene plate (clear-bottom white-wall). […] After incubating them at room temperature for 2 hours, 50 μl of Kinase-Glo Luminescent Kinase Assay reagent (Promega) was added to each well, and further incubated at room temperature for 10 minutes. Using a chemiluminescence microplate reader MicroLumat LB96P (Berthold), chemiluminescence intensity was measured to quantitate the amount of ATP remaining after reaction. From the amount of ATP consumed in the phosphorylation reaction, the inhibition rate (%) of JAK3 kinase activity was determined.

On to `N#CCC(=O)N1CCN(c2ccc(Nc3cc(NCc4c(F)cccc4F)c(C(N)=O)cn3)cc2)CC1` [Example 266, 6-({4-[4-(cyanoacetyl)piperazin-1-yl]phenyl}amino)-4-[(2,6-difluorobenzyl)amino]pyridine-3-carboxyamide], for which the inhibition (as a rule, the percentage by which the read-out fell short of the control) at 0.1 µM was 77%. On the same count and under the same terms, the result for `N#CCC(=O)N1CCN(c2cccc(Nc3cc(NCc4cc(F)cc(F)c4)c(C(N)=O)cn3)c2)CC1` [Example 267, 6-({3-[4-(cyanoacetyl)piperazin-1-yl]phenyl}amino)-4-[(3,5-difluorodibenzyl)amino]pyridine-3-carboxyamide] reads 72%; that for `N#CCC(=O)N1CCCN(c2ccc(Nc3cc(NCc4ccccc4)c(C(N)=O)cn3)cc2)CC1` [Example 268, 4-(benzylamino)-6-({4-[4-(cyanoacetyl)-1,4-diazepan-1-yl]phenyl}amino)pyridine-3-carboxyamide], 65%; that for `CCN(CC)CC(=O)N1CCN(c2ccc(Nc3cc(NCc4ccccc4)c(C(N)=O)cn3)cc2)CC1` [Example 274, 4-(benzylamino)-6-({4-[4-(N,N-diethylglycyl)piperazin-1-yl]phenyl}amino)pyridine-3-carboxyamide], 79%.

`CCN(CC)CC(=O)N1CCN(c2ccc(Nc3cc(NCc4cc(F)cc(F)c4)c(C(N)=O)cn3)cc2)CC1` [Example 275, 6-({4-[4-(N,N-diethylglycyl)piperazin-1-yl]phenyl}amino)-4-[(3,5-difluorobenzyl)amino]pyridine-3-carboxyamide]: the inhibition at 0.1 µM was found to be 96%. On the same count and under the same terms, the figure for `CCN(CC)CC(=O)N1CCC(c2ccc(Nc3cc(NCc4ccccc4)c(C(N)=O)cn3)cc2)CC1` [Example 277, 4-(benzylamino)-6-({4-[1-(N,N-diethylglycyl)piperidin-4-yl]phenyl}amino)pyridine-3-carboxyamide] is 70%. Regarding `CCN(CC)C(=O)Nc1ccc(Nc2cc(NCc3ccccc3)c(C(N)=O)cn2)cc1` [Example 279, 4-(benzylamino)-6-({4-[(diethylcarbamoyl)amino]phenyl}amino)pyridine-3-carboxyamide], the inhibition at 0.1 µM was found to be 59%. For `CCN(CC)C(=O)N1CCN(c2ccc(Nc3cc(NCc4ccccc4)c(C(N)=O)cn3)cc2)CC1` [Example 282, 4-(benzylamino)-6-({4-[(4-diethylcarbamoyl)piperazin-1-yl]phenyl}amino)pyridine-3-carboxyamide], the inhibition at 0.1 µM is 89%.

For the molecule `CC(C)NC(=O)N1CCN(c2ccc(Nc3cc(NCc4ccccc4)c(C(N)=O)cn3)cc2)CC1` [Example 283], the inhibition at 0.1 µM is 79%. Still for that read-out and setting: the figure for `CC(C)NC(=O)N1CCN(c2ccc(Nc3cc(NCc4cccc([N+](=O)[O-])c4)c(C(N)=O)cn3)cc2)CC1` [Example 284, 4-[(3-nitrobenzyl)amino]-6-[(4-{[4-(propan-2-yl)carbamoyl]piperazin-1-yl}phenyl)amino]pyridine-3-carboxyamide] is 63%. On to `CCN(CC)C(=O)N1CCC(Nc2ccc(Nc3cc(NCc4ccccc4)c(C(N)=O)cn3)cc2)CC1` [Example 290, 4-(benzylamino)-6-[(4-{[1-(diethylcarbamoyl)piperidin-4-yl]amino}phenyl)amino]pyridine-3-carboxyamide], for which the inhibition at 0.1 µM came to 71%.

Take `CS(=O)(=O)N1CCN(c2ccc(Nc3cc(NCc4cccc(F)c4F)c(C(N)=O)cn3)cc2)CC1` [Example 292, 4-[(2,3-difluorobenzyl)amino]-6-({4-[4-(methylsulfonyl)piperazin-1-yl]phenyl}amino)pyridine-3-carboxyamide]: the inhibition at 0.1 µM is 84%. Same read-out and setting: the result for `CS(=O)(=O)N1CCN(c2ccc(Nc3cc(NCc4cc(F)cc(F)c4)c(C(N)=O)cn3)cc2)CC1` [Example 293, 4-[(3,5-difluorobenzyl)amino]-6-({4-[4-(methylsulfonyl)piperazin-1-yl]phenyl}amino)pyridine-3-carboxyamide] reads 61%. Still for that read-out and setting: the figure for `CC(C)S(=O)(=O)Nc1ccc(Nc2cc(NCc3cc(F)cc(F)c3)c(C(N)=O)cn2)cc1` [Example 302, 4-[(3,5-difluorobenzyl)amino]-6-({4-[(propan-2-ylsulfonyl)amino]phenyl}amino)pyridine-3-carboxyamide] is 90%; for `CCN(CC)CCS(=O)(=O)Nc1ccc(Nc2cc(NCc3cc(F)cc(F)c3)c(C(N)=O)cn2)cc1` [Example 304, 6-{[4-({[2-(diethylamino)ethyl]sulfonyl}amino)phenyl]amino}-4-[(3,5-difluorobenzyl)amino]pyridine-3-carboxyamide] it is 78%; for `NCCS(=O)(=O)Nc1ccc(Nc2cc(NCc3cc(F)cc(F)c3)c(C(N)=O)cn2)cc1` [Example 305, 6-[(4-{[(2-aminoethyl)sulfonyl]amino}phenyl)amino]-4-[(3,5-difluorobenzyl)amino]pyridine-3-carboxyamide] it is 77%. On to `NC(=O)c1cnc(Nc2ccc(N3CCCS3(=O)=O)cc2)cc1NCc1ccccc1` [Example 307, 4-(benzylamino)-6-{[4-(1,1-dioxo-1,2-thiazolidin-2-yl)phenyl]amino}pyridine-3-carboxyamide], for which the inhibition at 0.1 µM was 71%. Same read-out and setting: the result for `NC(=O)c1cnc(Nc2ccc(NC(=O)C3CCNCC3)cc2)cc1NCc1ccccc1` [Example 314, 4-(benzylamino)-6-({4-[piperidin-4-ylcarbonyl]amino]phenyl}amino)pyridine-3-carboxyamide hydrochloride] reads 60%; that for `NC(=O)c1cnc(Nc2ccc(NC(=O)C3CCNCC3)cc2)cc1NCc1cc(F)cc(F)c1` [Example 315, 4-[(3,5-difluorobenzyl)amino]-6-({4-[(piperidin-4-ylcarbonyl)amino]phenyl}amino)pyridine-3-carboxyamide hydrochloride], 60%; that for `NC(=O)c1cnc(Nc2ccc(NC(=O)[C@@H]3CCCN3)cc2)cc1NCc1ccccc1` [Example 316, 4-(benzylamino)-6-({4-(L-prolylamino)phenyl]amino}pyridine-3-carboxyamide hydrochloride], 61%.

For the molecule `NC(=O)c1cnc(Nc2ccc(NC(=O)[C@@H]3CCCN3)cc2)cc1NCc1cc(F)cc(F)c1` [Example 317, 4-[(3,5-difluorobenzyl)amino]-6-{[4-(L-prolylamino)phenyl]amino}pyridine-3-carboxyamide hydrochloride], the inhibition at 0.1 µM was 62%. Still for that read-out and setting: the figure for `NC(=O)c1cnc(Nc2ccc(CN3CCOCC3)cc2)cc1NCc1ccccc1` [Example 318, 4-(benzylamino)-6-{[4-(morpholinomethyl)phenyl]amino}pyridine-3-carboxyamide] is 83%; for `NC(=O)c1cnc(Nc2ccc(C(=O)C(F)(F)F)cc2)cc1NCc1cc(F)cc(F)c1` [Example 326, 4-[(3,5-difluorobenzyl)amino]-6-{[(4-trifluoroacetyl)phenyl]amino}pyridine-3-carboxyamide] it is 71%; for `NC(=O)c1cnc(Nc2ccc(S(N)(=O)=O)cc2)cc1NCc1cc(F)cc(F)c1` [Example 328, 4-[(3,5-difluorobenzyl)amino]-6-[(4-sulfamoylphenyl)amino]pyridine-3-carboxyamide] it is 70%. Still for that read-out and setting: the result for `COCCNS(=O)(=O)c1ccc(Nc2cc(NCc3cc(F)cc(F)c3)c(C(N)=O)cn2)cc1` [Example 330, 4-[(3,5-difluorobenzyl)amino]-6-({4-[(2-methoxyethyl)sulfamoyl]phenyl}amino)pyridine-3-carboxyamide] reads 59%.

Turning to `NC(=O)c1cnc(Nc2ccc(C(=O)O)cc2)cc1NCc1cc(F)cc(F)c1` [Example 332, 6-[(4-carboxyphenyl)amino]-4-[(3,5-difluorobenzyl)amino]pyridine-3-carboxyamide], the inhibition at 0.1 µM worked out at 69%. For `NC(=O)c1cnc(Nc2ccc(N3CCOCC3)cc2)cc1NC1CCCCC1` [Example 345, 4-cyclohexylamino-6-[(4-morpholinophenyl)amino]pyridine-3-carboxyamide], the inhibition at 1 µM turned out to be 79%. The same measure, in the same setting: the result for `CS(=O)(=O)N1CCN(c2ccc(Nc3cc(NC4CCCCC4)c(C(N)=O)cn3)cc2)CC1` [Example 346, 4-cyclohexylamino-6-({4-[4-(methylsulfonyl)piperazin-1-yl]phenyl}amino)pyridine-3-carboxyamide] reads 72%; that for `CC1CCCCC1Nc1cc(Nc2ccc(N3CCOCC3)cc2)ncc1C(N)=O` (stereo not shown) [Example 349, 4-[(2-methylcyclohexyl)amino]-6-[(4-morpholinophenyl)amino]pyridine-3-carboxyamide], 90%; that for `NC(=O)c1cnc(Nc2ccc(N3CCOCC3)cc2)cc1NC1CCOc2ccccc21` (stereo not shown) [Example 351, 4-(3,4-dihydro-2H-1-benzopyran-4-ylamino)-6-[(4-morpholinophenyl)amino]pyridine-3-carboxyamide], 45%. On the same count and under the same terms, the figure for `NC(=O)c1cnc(Nc2ccc(N3CCOCC3)cc2)cc1NCc1cccnc1` [Example 353, 6-[(4-morpholinophenyl)amino]-4-[(pyridin-3-ylmethyl)amino}pyridine-3-carboxyamide] is 65%. The same measure, in the same setting: the result for `NC(=O)c1cnc(Nc2ccc(N3CCNCC3)cc2)cc1NCc1cccnc1` [Example 355, 6-{(4-(piperazin-1-yl)phenyl]amino}-4-[(pyridin-3-ylmethyl)amino}pyridine-3-carboxyamide] reads 92%; that for `CC(C)N1CCN(c2ccc(Nc3cc(NCc4cccnc4)c(C(N)=O)cn3)cc2)CC1` [Example 356, 6-({4-[4-(propan-2-yl)piperazin-1-yl]phenyl}amino)-4-[(pyridin-3-ylmethyl)amino]pyridine-3-carboxyamide], 92%; that for `CN1CCCC1CNc1cc(Nc2ccc(N3CCOCC3)cc2)ncc1C(N)=O` (stereo not shown) [Example 359, 4-{[(1-methylpyrrolidin-2-yl)methyl]amino}-6-[(4-morpholinophenyl)amino]pyridine-3-carboxyamide], 61%.

Source of the values: patent US8575153B2 (Kowa Company, Ltd., priority 2008, dated 2013).
